Experimental data as given in PubChem BioAssay (NCI).
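96-well plates; 48 h exposure; 5 concentrations. Endpoints by linear interpolation between flanking doses. Not reached: highest tested concentration assigned. Here, GI50 denotes the concentration required for 50% inhibition of growth. TGI is the concentration that stops growth completely.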

Legend:
Experiment in all cases: DTP human tumour cell line panel, 48 h
HS 578T breast = test system: HS 578T breast
HOP-62 NSCLC = test system: HOP-62 NSCLC
COLO 205 colon = test system: COLO 205 colon
MDA-MB-231 breast = test system: MDA-MB-231 breast
SF-268 CNS = test system: SF-268 CNS
EKVX NSCLC = test system: EKVX NSCLC
HT29 colon = test system: HT29 colon
SK-MEL-2 melanoma = test system: SK-MEL-2 melanoma
OVCAR-4 ovarian = test system: OVCAR-4 ovarian
ACHN renal = test system: ACHN renal

Compound	GI50 (HS 578T breast) [µM]	TGI (HS 578T breast) [µM]	GI50 (HOP-62 NSCLC) [µM]	TGI (HOP-62 NSCLC) [µM]	GI50 (COLO 205 colon) [µM]	TGI (COLO 205 colon) [µM]	GI50 (MDA-MB-231 breast) [µM]	TGI (MDA-MB-231 breast) [µM]	GI50 (SF-268 CNS) [µM]	TGI (SF-268 CNS) [µM]	GI50 (EKVX NSCLC) [µM]	TGI (EKVX NSCLC) [µM]	GI50 (HT29 colon) [µM]	TGI (HT29 colon) [µM]	GI50 (SK-MEL-2 melanoma) [µM]	TGI (SK-MEL-2 melanoma) [µM]	GI50 (OVCAR-4 ovarian) [µM]	TGI (OVCAR-4 ovarian) [µM]	GI50 (ACHN renal) [µM]	TGI (ACHN renal) [µM]
C=C(C)[C@@H]1CC[C@]2(COC(=O)c3ccccc3C(=O)O)CC[C@]3(C)[C@H](CC[C@@H]4[C@@]5(C)CC[C@H](OC(=O)c6ccccc6C(=O)O)C(C)(C)[C@@H]5CC[C@]43C)[C@@H]12	26.4	> 100	21.8	54.2	> 100	> 100	25	69.3	26.6	> 100	37.4	> 100	46	> 100	20.6	54.1	36.7	> 100	28	> 100
O=C1c2ccccc2-c2c1c1ccc3ccccc3c1n2-c1ccccc1	18	39.2	25.1	58.7	30.7	> 100	22.3	47.3	20	52.3	40	> 100	> 100	> 100	> 100	> 100	> 100	> 100	20.5	40.2
CCCCc1n(Cc2ccc3ccccc3n2)cc[n+]1Cc1ccc2ccccc2c1	1.33	4.07	1.72	5.25	0.502	1.79	0.635	2.04	0.984	2.92	1.4	11.8	0.592	2.85	0.977	2.64	0.262	1.63	2.89	8.8
COc1ccccc1CNC(=O)/C=C/c1ccc(O)c(O)c1	> 100	> 100	61.9	> 100	24.4	> 100	22.6	> 100	90.7	> 100	48.2	> 100	50.5	> 100	> 100	> 100	40	> 100	24.5	> 100
CCC1C[N+]2=C(c3cc(OC)c(OC)cc3CC2)c2c1cc1n2CCc2cc(OC)c(OC)cc2-1 (stereo not given)	4.1	> 100	3.51	26.5	1.23	3.71	2.27	8.44	3.49	31.8	6.62	> 100	3.23	20.3	2.67	7.31	1.14	8.87	14.7	30.1
COC(=O)[C@]12CC[C@@H](C)[C@H](C)[C@@H]1C1=CC[C@@H]3[C@@]4(C)C(C=O)=C[C@@](C)(COC(=O)c5ccco5)C4=CC[C@@]3(C)[C@]1(C)CC2	3.72	34.1	3.4	13.6	0.0247	0.0614	2.73	9.47	2.93	9.92	2.74	9.17	2.98	9.47	0.273	0.743	3.54	22.4	0.118	2.56
COC(=O)C(Br)(C(=O)OC)C(Br)C(Br)C(Br)c1ccccc1 (stereo not given)	6.25	15	6.31	15.7	1.87	3.56	3.11	9.71	5.5	16.5	13.9	31.9	1.8	3.34	14.4	27.8	1.82	3.96	2.2	5.15
COc1ccc(-n2nc(C(=O)NCC(=O)Nc3nc4cc(OC)ccc4s3)c3ccccc3c2=O)cc1	2.54	> 100	0.663	2.07	0.477	3.89	1.49	4.46	0.949	5.01	1.96	14.8	0.441	1.78	1.69	5.12	0.434	2.57	1.1	8.7
COc1cc2c3c(n(CCCN=[N+]=[N-])c(=O)c2cc1OC)-c1ccc(NC(C)=O)cc1C3=O	> 50	> 50	> 50	> 50	> 50	> 50	> 50	> 50	> 50	> 50	> 50	> 50	> 50	> 50	> 50	> 50	> 50	> 50	> 50	> 50
COc1ccc2cn3c4ccc(O)cc4[nH]c(=O)c3c2c1	0.249	31.6	0.0864	17.3	0.348	2.87	0.434	14.8	0.217	17.5	0.778	20.7	0.273	2.85	0.0602	12.8	9.51	23.3	0.0762	15.9
Cc1nc2sc(C(=O)Nc3cccc(Cl)c3C)c(N)c2cc1C(O)c1ccccc1 (stereo not given)	0.0239	0.497	0.0497	16.1	0.0667	1.37	0.0834	6.95	0.318	11.7	0.268	21.4	0.0355	8.35	0.0754	12.6	0.246	26.7	0.0881	14.8
CN1CCC(n2cnc(-c3ccc(F)cc3)c2-c2ccnc(Nc3ccccc3)n2)CC1	11.5	> 25	13.1	> 25	3.34	7.19	13.6	> 25	9.91	> 25	3.75	> 25	3.95	> 25	11.3	> 25	8.12	> 25	1.14	> 25
